Reference: PubChem BioAssay AID1259407 (Chemical Carcinogenesis Research Information System (CCRIS), 2018)
Calls of active or inactive are those of the source. No rule for the calls is given here.

Tested on: CCRIS mutagenicity, Ames/micronucleus/aberration tests
Test: CCRIS mutagenicity studies
[1] = Test System: AMES SALMONELLA TYPHIMURIUM, Strain/Indicator: TA98, Metabolic Activation: NONE, Method: PREINCUBATION
[2] = Test System: AMES SALMONELLA TYPHIMURIUM, Strain/Indicator: TA100, Metabolic Activation: NONE, Method: PREINCUBATION
[3] = Test System: AMES SALMONELLA TYPHIMURIUM, Strain/Indicator: TA100, Metabolic Activation: NONE, Method: STANDARD PLATE
[4] = Test System: AMES SALMONELLA TYPHIMURIUM, Strain/Indicator: TA104, Metabolic Activation: NONE, Method: STANDARD PLATE

## Nc1cccc([N+](=O)[O-])c1N
Test System: AMES SALMONELLA TYPHIMURIUM, Strain/Indicator: TA98(NR), Metabolic Activation: NONE, Method: PREINCUBATION
  mutagenic call: active; positive
Test System: AMES SALMONELLA TYPHIMURIUM, Strain/Indicator: TA98(NR), Metabolic Activation: RAT, LIVER, S-9, AROCLOR 1254, Method: PREINCUBATION
  mutagenic call: active; positive
[1]
  mutagenic call: active; positive
Test System: AMES SALMONELLA TYPHIMURIUM, Strain/Indicator: TA100(NR), Metabolic Activation: NONE, Method: PREINCUBATION
  mutagenic call: active; positive
Test System: AMES SALMONELLA TYPHIMURIUM, Strain/Indicator: TA100(NR), Metabolic Activation: RAT, LIVER, S-9, AROCLOR 1254, Method: PREINCUBATION
  mutagenic call: active; positive
[2]
  mutagenic call: active; positive
[3]
  mutagenic call: active; positive
[4]
  mutagenic call: active; positive
Test System: AMES SALMONELLA TYPHIMURIUM, Strain/Indicator: TA4001, Metabolic Activation: NONE, Method: STANDARD PLATE
  mutagenic call: inactive; negative
Test System: AMES SALMONELLA TYPHIMURIUM, Strain/Indicator: TA4006, Metabolic Activation: NONE, Method: STANDARD PLATE
  mutagenic call: active; positive
Test System: AMES SALMONELLA TYPHIMURIUM, Strain/Indicator: TA7001, Metabolic Activation: NONE, Method: STANDARD PLATE
  mutagenic call: active; positive
Test System: AMES SALMONELLA TYPHIMURIUM, Strain/Indicator: TA7001, Metabolic Activation: RAT LIVER S-9, AROCLOR 1254, Method: STANDARD PLATE
  mutagenic call: inactive; negative
Test System: AMES SALMONELLA TYPHIMURIUM, Strain/Indicator: TA7002, Metabolic Activation: NONE, Method: STANDARD PLATE
  mutagenic call: active; positive
Test System: AMES SALMONELLA TYPHIMURIUM, Strain/Indicator: TA7003, Metabolic Activation: NONE, Method: STANDARD PLATE
  mutagenic call: active; positive
Test System: AMES SALMONELLA TYPHIMURIUM, Strain/Indicator: TA7003, Metabolic Activation: RAT LIVER S-9, AROCLOR 1254, Method: STANDARD PLATE
  mutagenic call: inactive; negative
Test System: AMES SALMONELLA TYPHIMURIUM, Strain/Indicator: TA7004, Metabolic Activation: NONE, Method: STANDARD PLATE
  mutagenic call: active; positive
Test System: AMES SALMONELLA TYPHIMURIUM, Strain/Indicator: TA7004, Metabolic Activation: RAT LIVER S-9, AROCLOR 1254, Method: STANDARD PLATE
  mutagenic call: inactive; negative
Test System: AMES SALMONELLA TYPHIMURIUM, Strain/Indicator: TA7005, Metabolic Activation: NONE, Method: STANDARD PLATE
  mutagenic call: active; positive
Test System: AMES SALMONELLA TYPHIMURIUM, Strain/Indicator: TA7006, Metabolic Activation: NONE, Method: STANDARD PLATE
  mutagenic call: inactive; negative
Test System: CHINESE HAMSTER OVARY, Strain/Indicator: CHO-K1-BH4 (HGPRT), Metabolic Activation: NONE, Method: SUSPENSION/PLATE
  mutagenic call: active; positive

## COCCN(N=O)C(N)=O
Test System: E. COLI B, Strain/Indicator: H/R30R, Metabolic Activation: NONE
  mutagenic call: active; positive
Test System: E. COLI B, Strain/Indicator: HS30R, Metabolic Activation: NONE
  mutagenic call: active; positive

## O=C1O[C@H]([C@@H](O)CO)C(O)=C1O
End Point: IN VITRO CHROMOSOMAL ABERRATIONS, Test System: CHO CELLS, Metabolic Activation: RAT, LIVER, S-9, AROCLOR 1254
  mutagenic call: inactive; negative
End Point: IN VITRO MICRONUCLEUS, Test System: CHINESE HAMSTER OVARY (CHO-K5), Metabolic Activation: NONE
  mutagenic call: active; positive; no statistical analysis was performed
End Point: In vitro chromosomal aberrations, Test System: Chinese hamster lung CHL/IU cells, Metabolic Activation: None
  mutagenic call: inactive; negative. toxicicity at highest dose.
End Point: In vitro chromosomal aberrations, Test System: Chinese hamster ovary (CHO) cells, Metabolic Activation: None
  mutagenic call: inactive; negative; vitamin c, alone or in combination with glutamine, reduced effect of d
End Point: In vitro chromosomal aberrations, Test System: Human peripheral blood lymphocytes, Metabolic Activation: None
  mutagenic call: active; positive (structural changes); response at highest dose only
End Point: In vivo chromosomal aberrations, Test System: Bone marrow cells, Species: Rat, Strain/Sex: Wistar/Male and female, Route: Oral
  mutagenic call: inactive; negative; vitamin c, alone or with glutamine, reduced effect of doxorubicin
Test System: AMES SALMONELLA TYPHIMURIUM, Strain/Indicator: TA97, Metabolic Activation: HAMSTER, LIVER, S-9, AROCLOR 1254 (10 OR 30%), Method: PREINCUBATION
  mutagenic call: inactive; negative
Test System: AMES SALMONELLA TYPHIMURIUM, Strain/Indicator: TA97, Metabolic Activation: NONE, Method: PREINCUBATION
  mutagenic call: inactive; negative
Test System: AMES SALMONELLA TYPHIMURIUM, Strain/Indicator: TA97, Metabolic Activation: NONE, Method: STANDARD PLATE
  mutagenic call: inactive; negative
Test System: AMES SALMONELLA TYPHIMURIUM, Strain/Indicator: TA97, Metabolic Activation: RAT, LIVER, S-9, AROCLOR 1254 (10 OR 30%), Method: PREINCUBATION
  mutagenic call: inactive; negative
Test System: AMES SALMONELLA TYPHIMURIUM, Strain/Indicator: TA97, Metabolic Activation: RAT, LIVER, S-9, AROCLOR 1254, Method: STANDARD PLATE
  mutagenic call: inactive; negative
Test System: AMES SALMONELLA TYPHIMURIUM, Strain/Indicator: TA98, Metabolic Activation: HAMSTER, LIVER, S-9, AROCLOR 1254 (10 OR 30%), Method: PREINCUBATION
  mutagenic call: inactive; negative
[1]
  mutagenic call: inactive; negative
Test System: AMES SALMONELLA TYPHIMURIUM, Strain/Indicator: TA98, Metabolic Activation: NONE, Method: STANDARD PLATE
  mutagenic call: inactive; negative
Test System: AMES SALMONELLA TYPHIMURIUM, Strain/Indicator: TA98, Metabolic Activation: RAT, LIVER, S-9, AROCLOR 1254 (10 OR 30%), Method: PREINCUBATION
  mutagenic call: inactive; negative
Test System: AMES SALMONELLA TYPHIMURIUM, Strain/Indicator: TA98, Metabolic Activation: RAT, LIVER, S-9, AROCLOR 1254, Method: STANDARD PLATE
  mutagenic call: inactive; negative
Test System: AMES SALMONELLA TYPHIMURIUM, Strain/Indicator: TA100, Metabolic Activation: HAMSTER, LIVER, S-9, AROCLOR 1254 (10 OR 30%), Method: PREINCUBATION
  mutagenic call: inactive; negative
[2]
  mutagenic call: inactive; negative
[3]
  mutagenic call: inactive; negative
Test System: AMES SALMONELLA TYPHIMURIUM, Strain/Indicator: TA100, Metabolic Activation: RAT, LIVER, S-9, AROCLOR 1254 (10 OR 30%), Method: PREINCUBATION
  mutagenic call: inactive; negative
Test System: AMES SALMONELLA TYPHIMURIUM, Strain/Indicator: TA100, Metabolic Activation: RAT, LIVER, S-9, AROCLOR 1254, Method: STANDARD PLATE
  mutagenic call: inactive; negative
Test System: AMES SALMONELLA TYPHIMURIUM, Strain/Indicator: TA102, Metabolic Activation: NONE, Method: STANDARD PLATE
  mutagenic call: inactive; negative
[4]
  mutagenic call: inactive; negative
Test System: AMES SALMONELLA TYPHIMURIUM, Strain/Indicator: TA1535, Metabolic Activation: HAMSTER, LIVER, S-9, AROCLOR 1254 (10 OR 30%), Method: PREINCUBATION
  mutagenic call: inactive; negative
Test System: AMES SALMONELLA TYPHIMURIUM, Strain/Indicator: TA1535, Metabolic Activation: NONE, Method: PREINCUBATION
  mutagenic call: inactive; negative
Test System: AMES SALMONELLA TYPHIMURIUM, Strain/Indicator: TA1535, Metabolic Activation: RAT, LIVER, S-9, AROCLOR 1254 (10 OR 30%), Method: PREINCUBATION
  mutagenic call: inactive; negative
Test System: AMES SALMONELLA TYPHIMURIUM, Strain/Indicator: TA1537, Metabolic Activation: HAMSTER, LIVER, S-9, AROCLOR 1254 (10 OR 30%), Method: PREINCUBATION
  mutagenic call: inactive; negative
Test System: AMES SALMONELLA TYPHIMURIUM, Strain/Indicator: TA1537, Metabolic Activation: NONE, Method: PREINCUBATION
  mutagenic call: inactive; negative
Test System: AMES SALMONELLA TYPHIMURIUM, Strain/Indicator: TA1537, Metabolic Activation: RAT, LIVER, S-9, AROCLOR 1254 (10 OR 30%), Method: PREINCUBATION
  mutagenic call: inactive; negative
Test System: E. coli, Strain/Indicator: YG5190 (WP2 uvrA/pKM101 deficient in mutM gene), Metabolic Activation: None, Method: Preincubation
  mutagenic call: inactive; negative. addition of sodium nitrite (100 ug/plate) increased mutagenic response
Test System: E. coli, Strain/Indicator: YG5190 (WP2 uvrA/pKM101 deficient in mutM gene), Metabolic Activation: S9, Method: Preincubation
  mutagenic call: inactive; negative. addition of sodium nitrite (100 ug/plate) increased mutagenic response
Test System: HCT116 COLON CANCER CELLS, Strain/Indicator: HCT116 CELLS (HPRT)/6-THIOGUANINE, Metabolic Activation: NONE, Method: STANDARD PLATE
  mutagenic call: inactive; negative
